Measured values: article PMC5596636 (ACS chemical neuroscience, 2016)

Legend:
mMC3R = mMC3R (Mus musculus, UniProt P33033); test: cAMP-based β-galactosidase reporter agonist assay in HEK293 cells, mMC3R; settings: for selectivity for the mMC3R over the mMC1R: from agonist EC50 values
mMC4R = mMC4R (Mus musculus, UniProt P56450); test: cAMP-based β-galactosidase reporter agonist assay in HEK293 cells, mMC4R; settings: for mMC4R fold difference: potency loss; for selectivity for the mMC4R over the mMC1R: from agonist EC50 values
mMC4R, sequence (P56450 whole entry): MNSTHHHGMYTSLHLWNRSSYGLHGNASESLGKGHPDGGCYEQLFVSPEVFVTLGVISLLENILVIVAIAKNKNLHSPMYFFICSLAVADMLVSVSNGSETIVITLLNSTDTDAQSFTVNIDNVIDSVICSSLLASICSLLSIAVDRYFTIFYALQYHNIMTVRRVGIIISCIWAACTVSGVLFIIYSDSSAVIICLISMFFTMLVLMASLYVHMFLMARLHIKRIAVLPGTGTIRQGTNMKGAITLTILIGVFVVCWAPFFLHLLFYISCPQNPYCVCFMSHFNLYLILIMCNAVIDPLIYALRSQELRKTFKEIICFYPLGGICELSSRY

hMC4R [1] = settings: cited from earlier work
mMC1R [2] = biological target: T1, mMC1R (Mus musculus, UniProt Q01727); test: cAMP-based β-galactosidase reporter agonist assay in HEK293 cells, mMC1R; settings: for mMC1R fold difference: potency loss
T1 sequence (Q01727 whole entry): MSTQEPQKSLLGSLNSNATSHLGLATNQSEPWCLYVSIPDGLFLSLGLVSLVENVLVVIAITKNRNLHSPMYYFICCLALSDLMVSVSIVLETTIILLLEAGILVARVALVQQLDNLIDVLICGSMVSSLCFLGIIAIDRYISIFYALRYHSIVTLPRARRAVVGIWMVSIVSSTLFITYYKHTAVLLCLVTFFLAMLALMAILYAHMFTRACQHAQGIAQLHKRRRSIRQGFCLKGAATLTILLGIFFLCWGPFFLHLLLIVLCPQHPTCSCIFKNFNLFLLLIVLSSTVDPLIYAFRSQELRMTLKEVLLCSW

mMC5R = mMC5R (Mus musculus, UniProt P41149); test: cAMP-based β-galactosidase reporter agonist assay in HEK293 cells, mMC5R; settings: for mMC5R fold difference: potency loss
mMC5R, sequence (P41149 whole entry): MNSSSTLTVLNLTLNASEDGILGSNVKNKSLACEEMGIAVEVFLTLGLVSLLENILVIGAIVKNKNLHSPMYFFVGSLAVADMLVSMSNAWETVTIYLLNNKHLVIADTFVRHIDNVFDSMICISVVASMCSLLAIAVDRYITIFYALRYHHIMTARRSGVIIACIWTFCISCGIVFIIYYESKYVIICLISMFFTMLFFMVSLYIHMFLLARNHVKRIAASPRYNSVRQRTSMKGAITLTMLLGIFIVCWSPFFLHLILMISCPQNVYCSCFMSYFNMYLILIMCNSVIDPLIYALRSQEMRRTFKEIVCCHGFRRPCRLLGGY

rMC3R = settings: HEK293 cells expressing the rMC3R; relative to α-MSH; cited from earlier work
mMC1R [3] = biological target: T1, mMC1R; settings: B16 murine melanoma cells; relative to α-MSH; cited from earlier work
mMC1R [4] = biological target: T1, mMC1R; settings: B16 murine melanoma cells; relative to α-MSH; cited from earlier work; remark: listed apart in the source
hMC4R [5] = settings: cited from earlier work; remark: listed apart in the source
[6] = EC50 of substituted peptide divided by EC50 of NDP-MSH
[7] = EC50 of substituted peptide divided by EC50 of α-MSH

mMC3R, sequence (P33033 whole entry): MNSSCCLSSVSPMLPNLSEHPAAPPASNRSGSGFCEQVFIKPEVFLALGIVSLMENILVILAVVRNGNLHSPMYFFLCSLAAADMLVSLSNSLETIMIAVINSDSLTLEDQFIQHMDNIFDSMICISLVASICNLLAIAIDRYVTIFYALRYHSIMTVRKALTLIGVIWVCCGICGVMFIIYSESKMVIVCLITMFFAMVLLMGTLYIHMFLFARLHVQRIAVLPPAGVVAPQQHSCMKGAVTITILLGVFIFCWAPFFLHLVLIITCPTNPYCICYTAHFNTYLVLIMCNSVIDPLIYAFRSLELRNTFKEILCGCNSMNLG

Compound	EC50 (mMC3R) [µM]	mMC3R fold difference (mMC3R; EC50 of substituted peptide divided by EC50 of NDP-MSH, potency loss) [fold]	mMC4R fold difference (mMC4R; [6]) [fold]	mMC1R fold difference (mMC1R [2]; [6])	mMC5R fold difference (mMC5R; [6])	mMC4R fold difference (mMC4R; [7])	mMC1R fold difference (mMC1R [2]; [7]) [fold]	mMC5R fold difference (mMC5R; [7])	selectivity for the mMC5R over the mMC4R (mMC5R; from agonist EC50 values) [fold]	selectivity for the mMC3R over the mMC1R (mMC3R) [fold]	selectivity for the mMC4R over the mMC1R (mMC4R) [fold]	selectivity for the mMC5R over the mMC1R (mMC5R; from agonist EC50 values) [fold]	EC50 (mMC4R; mMC4R EC50, bound, Table 2, EC50 higher than 20 μM) [µM]	EC50 (mMC5R; mMC5R EC50, bound, Table 2, EC50 higher than 20 μM) [µM]	EC50 (mMC1R [2]; mMC1R EC50, bound, Table 2, EC50 higher than 20 μM) [µM]	fold decreased agonist potency at the hMC4R relative to NDP-MSH (hMC4R [1]) [fold]	fold decreased binding affinity at the rMC3R (rMC3R)	fold decreased tyrosinase potency at the mMC1R (mMC1R [3])	fold decreased binding affinity at the mMC1R (mMC1R [4])	fold agonist potency loss at the hMC4R relative to NDP-MSH (hMC4R [5]) [fold]
CCCC[C@H](NC(=O)[C@H](CO)NC(=O)[C@H](Cc1ccc(O)cc1)NC(=O)[C@H](CO)NC(C)=O)C(=O)N[C@@H](C)C(=O)N[C@@H](Cc1c[nH]cn1)C(=O)N[C@H](Cc1ccccc1)C(=O)N[C@@H](CCCNC(=N)N)C(=O)N[C@@H](Cc1c[nH]c2ccccc12)C(=O)NCC(=O)N[C@@H](CCCCN)C(=O)N1CCC[C@H]1C(=O)N[C@H](C(N)=O)C(C)C [[Ala^5]NDP-MSH, Ac-Ser-Tyr-Ser-Nle-Ala-His-DPhe-Arg-Trp-Gly-Lys-Pro-Val-NH2]	0.00118 ± 0.0004	5	4	no change	no change	–	–	–	–	–	–	–	–	–	–	4	–	–	–	–
CSCC[C@H](NC(=O)[C@H](CO)NC(=O)[C@H](Cc1ccc(O)cc1)NC(=O)[C@H](CO)NC(C)=O)C(=O)N[C@@H](CCC(=O)O)C(=O)N[C@@H](Cc1c[nH]cn1)C(=O)N[C@@H](Cc1ccccc1)C(=O)N[C@@H](C)C(=O)N[C@@H](Cc1c[nH]c2ccccc12)C(=O)NCC(=O)N[C@@H](CCCCN)C(=O)N1CCC[C@H]1C(=O)N[C@H](C(N)=O)C(C)C [[Ala^8]α-MSH]	0.67 ± 0.215	–	–	–	–	470 fold	200	5 fold	120	–	–	–	–	–	–	–	200 fold	100 fold	2080 fold	–
CSCC[C@H](NC(=O)[C@H](CO)NC(=O)[C@H](Cc1ccc(O)cc1)NC(=O)[C@H](CO)NC(C)=O)C(=O)N[C@@H](CCC(=O)O)C(=O)N[C@@H](C)C(=O)N[C@@H](Cc1ccccc1)C(=O)N[C@@H](CCCNC(=N)N)C(=O)N[C@@H](Cc1c[nH]c2ccccc12)C(=O)NCC(=O)N[C@@H](CCCCN)C(=O)N1CCC[C@H]1C(=O)N[C@H](C(N)=O)C(C)C [[Ala^6]α-MSH]	4.27 ± 1.96	–	–	–	–	110 fold	35	45 fold	–	–	–	–	–	–	–	–	6 fold	6 fold	83 fold	–
CCCC[C@H](NC(=O)[C@H](CO)NC(=O)[C@H](Cc1ccc(O)cc1)NC(=O)[C@H](CO)NC(C)=O)C(=O)N[C@@H](CCC(=O)O)C(=O)N[C@@H](Cc1c[nH]cn1)C(=O)N[C@H](Cc1ccccc1)C(=O)N[C@@H](C)C(=O)N[C@@H](Cc1c[nH]c2ccccc12)C(=O)NCC(=O)N[C@@H](CCCCN)C(=O)N1CCC[C@H]1C(=O)N[C@H](C(N)=O)C(C)C [[Ala^8]NDP-MSH, Ac-Ser-Tyr-Ser-Nle-Glu-His-DPhe-Ala-Trp-Gly-Lys-Pro-Val-NH2]	0.00207 ± 0.00042	–	29	6 fold	did not affect the agonist potency	–	–	–	–	–	–	–	–	–	–	–	–	–	–	32

The remaining molecules from weak to strong by EC50 (mMC3R), led by results:

EC50 (mMC3R) [µM]	mMC3R fold difference (mMC3R; EC50 of substituted peptide divided by EC50 of NDP-MSH, potency loss) [fold]	mMC4R fold difference (mMC4R; [6]) [fold]	mMC1R fold difference (mMC1R [2]; [6])	mMC5R fold difference (mMC5R; [6])	mMC4R fold difference (mMC4R; [7])	mMC1R fold difference (mMC1R [2]; [7]) [fold]	mMC5R fold difference (mMC5R; [7])	selectivity for the mMC5R over the mMC4R (mMC5R; from agonist EC50 values) [fold]	selectivity for the mMC3R over the mMC1R (mMC3R) [fold]	selectivity for the mMC4R over the mMC1R (mMC4R) [fold]	selectivity for the mMC5R over the mMC1R (mMC5R; from agonist EC50 values) [fold]	EC50 (mMC4R; mMC4R EC50, bound, Table 2, EC50 higher than 20 μM) [µM]	EC50 (mMC5R; mMC5R EC50, bound, Table 2, EC50 higher than 20 μM) [µM]	EC50 (mMC1R [2]; mMC1R EC50, bound, Table 2, EC50 higher than 20 μM) [µM]	Compound	fold decreased agonist potency at the hMC4R relative to NDP-MSH (hMC4R [1]) [fold]	fold decreased binding affinity at the rMC3R (rMC3R)	fold decreased tyrosinase potency at the mMC1R (mMC1R [3])	fold decreased binding affinity at the mMC1R (mMC1R [4])	fold agonist potency loss at the hMC4R relative to NDP-MSH (hMC4R [5]) [fold]
15.7 ± 4.87	–	–	–	–	1500 fold	570	1370 fold	–	–	–	–	> 20	> 20	–	CSCC[C@H](NC(=O)[C@H](CO)NC(=O)[C@H](Cc1ccc(O)cc1)NC(=O)[C@H](CO)NC(C)=O)C(=O)N[C@@H](CCC(=O)O)C(=O)N[C@@H](Cc1c[nH]cn1)C(=O)N[C@@H](Cc1ccccc1)C(=O)N[C@@H](CCCNC(=N)N)C(=O)N[C@@H](C)C(=O)NCC(=O)N[C@@H](CCCCN)C(=O)N1CCC[C@H]1C(=O)N[C@H](C(N)=O)C(C)C [[Ala^9]α-MSH]	–	83 fold	120 fold	2000 fold	–
0.22 ± 0.055	–	–	–	–	15 fold	1560	unaltered	–	220	130	740	–	–	> 20	CSCC[C@H](NC(=O)[C@H](CO)NC(=O)[C@H](Cc1ccc(O)cc1)NC(=O)[C@H](CO)NC(C)=O)C(=O)N[C@@H](C)C(=O)N[C@@H](Cc1c[nH]cn1)C(=O)N[C@@H](Cc1ccccc1)C(=O)N[C@@H](CCCNC(=N)N)C(=O)N[C@@H](Cc1c[nH]c2ccccc12)C(=O)NCC(=O)N[C@@H](CCCCN)C(=O)N1CCC[C@H]1C(=O)N[C@H](C(N)=O)C(C)C [[Ala^5]α-MSH]	–	equipotent	equipotent	equipotent	–
0.0174 ± 0.00612	–	–	–	–	5 fold	400	did not alter potency	–	710	100	210	–	–	–	CC(=O)N[C@@H](CO)C(=O)N[C@@H](Cc1ccc(O)cc1)C(=O)N[C@@H](CO)C(=O)N[C@@H](C)C(=O)N[C@@H](CCC(=O)O)C(=O)N[C@@H](Cc1c[nH]cn1)C(=O)N[C@@H](Cc1ccccc1)C(=O)N[C@@H](CCCNC(=N)N)C(=O)N[C@@H](Cc1c[nH]c2ccccc12)C(=O)NCC(=O)N[C@@H](CCCCN)C(=O)N1CCC[C@H]1C(=O)N[C@H](C(N)=O)C(C)C [[Ala^4]α-MSH]	–	14 fold	59 fold	140 fold	–
0.0174 ± 0.0104	–	–	–	–	no differences	5	no differences	–	–	–	–	–	–	–	CSCC[C@H](NC(=O)[C@H](CO)NC(=O)[C@H](Cc1ccc(O)cc1)NC(=O)[C@H](C)NC(C)=O)C(=O)N[C@@H](CCC(=O)O)C(=O)N[C@@H](Cc1c[nH]cn1)C(=O)N[C@@H](Cc1ccccc1)C(=O)N[C@@H](CCCNC(=N)N)C(=O)N[C@@H](Cc1c[nH]c2ccccc12)C(=O)NCC(=O)N[C@@H](CCCCN)C(=O)N1CCC[C@H]1C(=O)N[C@H](C(N)=O)C(C)C [[Ala^1]α-MSH]	–	did not affect	did not affect	did not affect	–
0.0121 ± 0.00635	–	–	–	–	within experimental error	26	within experimental error	–	–	–	–	–	–	–	CSCC[C@H](NC(=O)[C@H](C)NC(=O)[C@H](Cc1ccc(O)cc1)NC(=O)[C@H](CO)NC(C)=O)C(=O)N[C@@H](CCC(=O)O)C(=O)N[C@@H](Cc1c[nH]cn1)C(=O)N[C@@H](Cc1ccccc1)C(=O)N[C@@H](CCCNC(=N)N)C(=O)N[C@@H](Cc1c[nH]c2ccccc12)C(=O)NCC(=O)N[C@@H](CCCCN)C(=O)N1CCC[C@H]1C(=O)N[C@H](C(N)=O)C(C)C [[Ala^3]α-MSH]	–	equipotent	equipotent	equipotent	–
